The values that follow come from patent US20240248078A1, “Compositions For and Methods of Evaluating Gap Junction Formation and Function” (Duke University, priority 2021, published 2024).

What all share (format): cell-based, human
One experiment relates to HEK 293FT cells. The experiment in a line: Flow enabled tracking of connexosomes in HEK 293FT cells (FETCH). To be noted: for homotypic FETCH score (docking): homotypic pairing of fluorescent C-terminal fusion constructs, Q2/(Q1+Q2+Q3); for heterotypic FETCH score when paired with Cx43: co-plated with cells expressing Cx43. Here is the method:
FETCH analysis is fundamentally a two-component system. To complete FETCH analysis, replica multi-well plates were transfected with either of the two components being evaluated. The media of transfected wells was changed 16-18 hrs post-transfection and cells were trypsinized and experimental counterparts were combined at ˜20 hrs post-transfection. The entirety of combined samples were then plated onto new, 10 μg/mL Fibronectin coated wells of the same size, resulting in hyperdensity and over confluency. Following co-plating, samples were incubated for ˜20 hr-24 hrs, at which point samples were trypsinized, resuspended in phosphate buffered saline with 10 U/mL DNAse and fixed with paraformaldehyde (f/c of 1.5%). Co-plated samples in 96 well plates were resuspended to a final volume of ˜150 μL, samples from 24-well plates were resuspended to a final volume of ˜600 μL.
Flow cytometry data was collected on either a BD FACSCanto II (2-color experiments and high-throughput 96-well plates; 488 nm and 633 nm lasers), which utilizes the BD FACSDiVa software. Samples were analyzed in two selection gates prior to their fluorescence evaluation. First, presumable HEK cells were identified by evaluating sample forward vs side scatter area. Next, single cells were selected by evaluating cells that maintained a linear correlation of forward scatter height to forward scatter area. Finally, the fluorescence profiles of each sample were generated.
Each FETCH experiment produces “*.fcs” files that contain all the channel data for fluorescence in the sample. The automated pipeline loads these files, extracts FSC-A, SSC-A, and FSC-H. Depending on the machine used, green channel was loaded as 1-A or as FITC-A. For the red channel, both APC-A (RFP670) with PE-A (mApple) can be used or 5-A(RFP670) can be used. Next, the code produces two matrices containing SSC-A with FSC-A, and FSC-A with FSC-H, respectively.
The first gate is drawn on the FSC-A vs SSC-A axes to exclude cellular debris which clusters in the lower left corner and the cells that are saturating the laser (at the max of both axes). On an FSC-A vs SSC-A plot, the cellular debris usually is smoothly transitioning into the population of intact cells, therefore a Gaussian kernel density estimator with the estimator bandwidth selection defined by the Scott's Rule is used to draw contours around the data in SSC-A vs FSC-A matrix. Next, a set of heuristics was used to determine which of the contour lines should be used to define the first gate. Specifically, cellular debris usually clusters below 25000 on both axes, so any contour that includes values at or below is excluded. Similarly, any contour within a 1000 of the maximum value of each axis is also excluded. Of the remaining contours, the largest one is chosen, and an oval equation is fitted to the points defining that contour to attenuate occasional protrusions of the contour that tap into cellular debris population in rare cases. The fitted oval becomes the first gate.
For all the elements inside of the first gate, a second gate was drawn in the axis of FSC-A and FSC-H to exclude non-single cells. For the second gate, a line was fit to all the points. Next, for each point, a norm to the fit line was found and a standard deviation of all such norms was found. Using this standard deviation, a second gate 4 standard deviations away from the fitted line was defined on both sides and excluded all the points outside of this gate.
Upon applying the first two gates, the data was finally plotted with the red fluorophore on the y axis and the green fluorophore on the x axis. If a sample contained more than two fluorophores, then the last gate was drawn for each possible combination. Since some readings are below zero due to fluorescence compensation, all the data points were shifted by the smallest value along both axes and then a natural log of fluorescence levels was taken. […]

Another experiment concerns 293 cells. Kind of experiment: FETCH in 293 cell line. To be noted: compared with HEK 293FT. An excerpt: (§1) For FETCH to be successful, cells must overexpress Cx-FP constructs to a sufficient degree to promote observable fluorescence exchange.
The next experiment deals with HeLa cells. Kind of experiment: FETCH in HeLa cell line. To be noted: compared with HEK 293FT.
Excerpt: as §1

With “Cx31.1: human connexin 31.1 (GJB5), C-terminal fluorescent fusion protein”, the “homotypic FETCH score (docking)” value in the experiment with HEK 293FT cells was “failed to generate a significant homotypic FETCH score”.

Take “Cx43-ELs-Cx26: chimeric construct of the intracellular and transmembrane regions of Cx43 and the ELs of Cx26”: the “FETCH docking when paired with Cx26” value with HEK 293FT cells (co-plated with cells expressing Cx26) is recorded as “preferentially docked”. Further, the “heterotypic FETCH score when paired with Cx43” value (from here on “heterotypic FETCH score”) in the experiment with HEK 293FT cells was “not Cx43”.

“S182A: random alanine scanning mutation of the Cx43 extracellular loops”: the “homotypic FETCH score (docking)” value in the experiment on HEK 293FT cells is “retained their ability to homotypically dock”.

“Cx45: human connexin 45 (GJC1), C-terminal fluorescent fusion protein”: in the experiment with HEK 293FT cells, the “heterotypic FETCH score” value was “positive” and the “homotypic FETCH score (docking)” value is reported as “significantly positive”.

Consider “Cx62: human connexin 62 (GJA10), C-terminal fluorescent fusion protein”, for which the “homotypic FETCH score (docking)” value in the experiment on HEK 293FT cells is “failed to generate a significant homotypic FETCH score”.

As for “Cx46: human connexin 46 (GJA3), C-terminal fluorescent fusion protein”, in the experiment on HEK 293FT cells, the “homotypic FETCH score (docking)” value is “failed to generate a significant homotypic FETCH score”.

Turning to “D190A: random alanine scanning mutation of the Cx43 extracellular loops”, the “homotypic FETCH score (docking)” value in the experiment with HEK 293FT cells was “retained their ability to homotypically dock”.

On to “Cx32: human connexin 32 (GJB1), C-terminal fluorescent fusion protein”, for which, in the experiment on HEK 293FT cells, the “heterotypic FETCH score” value is reported as “failed to dock” and the “homotypic FETCH score (docking)” value is reported as “significantly positive”.

With “Cx50: human connexin 50 (GJA8), C-terminal fluorescent fusion protein”, the “homotypic FETCH score (docking)” value in the experiment on HEK 293FT cells is listed as “failed to generate a significant homotypic FETCH score”.

As for “Cx59: human connexin 59 (GJA9), C-terminal fluorescent fusion protein”, the “homotypic FETCH score (docking)” value with HEK 293FT cells is given as “failed to generate a significant homotypic FETCH score”.

Consider “Cx31.9: human connexin 31.9 (GJD3), C-terminal fluorescent fusion protein”, for which the “homotypic FETCH score (docking)” value in the experiment with HEK 293FT cells is “failed to generate a significant homotypic FETCH score”.

Consider “Cx36: human connexin 36 (GJD2), C-terminal fluorescent fusion protein”, for which, in the experiment with HEK 293FT cells, the “heterotypic FETCH score” value is reported as “failed to dock” and the “homotypic FETCH score (docking)” value is on record as “significantly positive”.

Consider “Cx31.3: human connexin 31.3, C-terminal fluorescent fusion protein”, for which the “homotypic FETCH score (docking)” value in the experiment on HEK 293FT cells is on record as “failed to generate a significant homotypic FETCH score”.

Consider “Cx43: human connexin 43 (GJA1), expressed as C-terminal fluorescent fusion protein”, for which the FETCH score result in the experiment on 293 cells and in the experiment with HeLa cells was “substantially lower” throughout. Besides, in the experiment on HEK 293FT cells, the “homotypic FETCH score (docking)” value is listed as “significantly positive”.
